Measured values published in ChEMBL document CHEMBL5665443, “Enzyme Inhibitor Single Concentration assay results for EUbOPEN Chemogenomics Library” (2024).

Experiments:
[1] = molecular target: T1, Endonuclease III-like protein 1 (Homo sapiens) (UniProt P78549); details: Hit No;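 further: enzyme assay tracking NTHL1 cutting and release of a quenched double-stranded DNA oligo substrate, read as fluorescence at 594 nm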
T1 sequence (whole entry): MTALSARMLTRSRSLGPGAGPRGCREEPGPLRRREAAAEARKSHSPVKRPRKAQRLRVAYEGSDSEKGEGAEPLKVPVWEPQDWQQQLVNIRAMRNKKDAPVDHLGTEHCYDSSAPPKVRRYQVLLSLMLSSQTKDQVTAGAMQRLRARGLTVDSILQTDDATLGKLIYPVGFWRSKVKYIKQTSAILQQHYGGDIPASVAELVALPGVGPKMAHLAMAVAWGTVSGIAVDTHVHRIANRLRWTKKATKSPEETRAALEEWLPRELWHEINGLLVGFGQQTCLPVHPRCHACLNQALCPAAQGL
Description: Inhibition of NTHL1 by quantifying inhibition of NTHL1-mediated cleavage and dissociation of quenched duplex DNA oligonucleotides, measured as fluorescence at 594 nm.

[2] = molecular target: N-glycosylase/DNA lyase (Homo sapiens) (UniProt O15527);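 further: OGG1 cleavage of a quenched duplex DNA oligonucleotide, coupled to APE1 for strand incision, read as fluorescence at 594 nm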
Sequence of N-glycosylase/DNA lyase (Homo sapiens) (O15527 whole entry): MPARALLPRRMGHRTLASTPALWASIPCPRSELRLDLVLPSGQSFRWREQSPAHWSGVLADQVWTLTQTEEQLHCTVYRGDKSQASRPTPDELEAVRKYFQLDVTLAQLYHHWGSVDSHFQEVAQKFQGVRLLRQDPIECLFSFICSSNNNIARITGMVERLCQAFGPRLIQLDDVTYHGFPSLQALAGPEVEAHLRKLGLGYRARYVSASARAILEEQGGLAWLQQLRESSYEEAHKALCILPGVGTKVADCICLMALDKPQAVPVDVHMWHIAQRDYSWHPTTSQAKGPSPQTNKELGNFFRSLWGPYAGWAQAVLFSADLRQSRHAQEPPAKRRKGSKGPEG
Description: Inhibition of OGG1 by quantifying inhibition of OGG1-mediated cleavage and dissociation of quenched duplex DNA oligonucleotides, measured as fluorescence at 594 nm. To generate a functional strand incision and increase turn-over this assay is coupled to APE1.

[3] = molecular target: T2, Endonuclease 8-like 2 (Homo sapiens) (UniProt Q969S2); details: Hit No;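 further: fluorescence at 594 nm reports NEIL2 cutting and release of a quenched double-stranded DNA oligo substrate, reduced signal read as inhibition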
T2 sequence (whole entry): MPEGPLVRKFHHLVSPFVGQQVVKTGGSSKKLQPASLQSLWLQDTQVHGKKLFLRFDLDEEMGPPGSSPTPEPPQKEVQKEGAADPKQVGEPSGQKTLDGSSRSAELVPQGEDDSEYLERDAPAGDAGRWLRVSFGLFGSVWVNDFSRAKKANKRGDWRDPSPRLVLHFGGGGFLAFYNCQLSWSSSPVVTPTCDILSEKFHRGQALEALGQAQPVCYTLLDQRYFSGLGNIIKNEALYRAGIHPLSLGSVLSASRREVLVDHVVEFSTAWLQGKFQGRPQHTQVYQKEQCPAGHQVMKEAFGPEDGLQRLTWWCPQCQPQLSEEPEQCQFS
Description: Inhibition of NEIL2 by quantifying inhibition of NEIL2-mediated cleavage and dissociation of quenched duplex DNA oligonucleotides, measured as fluorescence at 594 nm.

[4] = molecular target: Methyl-CpG-binding domain protein 4 (Homo sapiens) (UniProt O95243); details: Hit No;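 further: MBD4 activity read as fluorescence at 594 nm from cleavage and release of a quenched duplex DNA oligonucleotide, with APE1 coupled to incise the strand and raise turnover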
Sequence of Methyl-CpG-binding domain protein 4 (Homo sapiens) (O95243 whole entry, the tested form may be a part): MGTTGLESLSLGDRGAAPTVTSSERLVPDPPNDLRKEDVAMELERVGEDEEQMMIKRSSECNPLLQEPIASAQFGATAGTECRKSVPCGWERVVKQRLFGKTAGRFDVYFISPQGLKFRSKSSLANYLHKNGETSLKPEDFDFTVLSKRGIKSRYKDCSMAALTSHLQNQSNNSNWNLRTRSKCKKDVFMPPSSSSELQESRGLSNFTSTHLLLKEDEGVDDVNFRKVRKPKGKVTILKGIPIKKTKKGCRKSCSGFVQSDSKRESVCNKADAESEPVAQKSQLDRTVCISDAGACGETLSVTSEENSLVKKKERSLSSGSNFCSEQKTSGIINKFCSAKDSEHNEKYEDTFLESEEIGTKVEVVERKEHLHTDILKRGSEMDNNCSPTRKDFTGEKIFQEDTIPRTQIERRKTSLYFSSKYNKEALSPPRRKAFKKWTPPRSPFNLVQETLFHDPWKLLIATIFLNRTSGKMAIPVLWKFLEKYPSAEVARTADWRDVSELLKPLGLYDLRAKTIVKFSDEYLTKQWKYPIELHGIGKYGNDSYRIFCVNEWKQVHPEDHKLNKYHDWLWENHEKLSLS
Description: Inhibition of MBD4 by quantifying inhibition of MBD4-mediated cleavage and dissociation of quenched duplex DNA oligonucleotides, measured as fluorescence at 594 nm. To generate a functional strand incision and increase turn-over this assay is coupled to APE1.

[5] = molecular target: Endonuclease 8-like 1 (Homo sapiens) (UniProt Q96FI4); details: Hit No;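 further: fluorescence at 594 nm from quenched duplex DNA oligonucleotides released by NEIL1 cleavage and strand separation, reported as reduction of this enzyme activity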
Sequence of Endonuclease 8-like 1 (Homo sapiens) (Q96FI4 whole entry): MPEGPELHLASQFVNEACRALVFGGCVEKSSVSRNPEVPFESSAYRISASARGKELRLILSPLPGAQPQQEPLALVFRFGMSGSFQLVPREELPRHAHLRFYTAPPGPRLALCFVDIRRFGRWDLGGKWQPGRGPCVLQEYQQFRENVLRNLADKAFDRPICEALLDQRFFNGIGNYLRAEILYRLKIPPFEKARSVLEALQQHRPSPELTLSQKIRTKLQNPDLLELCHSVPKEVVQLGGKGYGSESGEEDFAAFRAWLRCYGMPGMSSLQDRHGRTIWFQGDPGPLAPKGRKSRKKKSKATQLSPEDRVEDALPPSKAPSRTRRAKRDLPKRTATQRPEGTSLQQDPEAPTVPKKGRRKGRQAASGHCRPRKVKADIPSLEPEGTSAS
Description: Inhibition of NEIL1 by quantifying inhibition of NEIL1-mediated cleavage and dissociation of quenched duplex DNA oligonucleotides, measured as fluorescence at 594 nm.

[6] = molecular target: T3, Single-strand selective monofunctional uracil DNA glycosylase (Homo sapiens) (UniProt Q53HV7); details: Hit No;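 further: enzymatic SMUG1 assay coupled with APE1, reading fluorescence at 594 nm released when a quenched double-stranded DNA oligonucleotide substrate is cleaved and separated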
T3 sequence (whole entry): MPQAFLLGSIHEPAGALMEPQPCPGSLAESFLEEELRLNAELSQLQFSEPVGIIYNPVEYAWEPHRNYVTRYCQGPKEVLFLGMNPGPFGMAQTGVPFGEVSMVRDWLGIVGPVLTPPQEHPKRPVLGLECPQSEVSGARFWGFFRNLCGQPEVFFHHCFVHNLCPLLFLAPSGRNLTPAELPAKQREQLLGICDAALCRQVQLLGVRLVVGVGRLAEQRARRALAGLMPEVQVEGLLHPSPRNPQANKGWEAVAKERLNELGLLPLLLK
Description: Inhibition of SMUG1 by quantifying inhibition of SMUG1-mediated cleavage and dissociation of quenched duplex DNA oligonucleotides, measured as fluorescence at 594 nm. To generate a functional strand incision and increase turn-over this assay is coupled to APE1.

[7] = molecular target: G/T mismatch-specific thymine DNA glycosylase (Homo sapiens) (UniProt Q13569); details: Hit No;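 further: human TDG cleavage of quenched duplex DNA oligonucleotides coupled to APE1, strand release read as fluorescence at 594 nm, inhibition of TDG activity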
Sequence of G/T mismatch-specific thymine DNA glycosylase (Homo sapiens) (Q13569 whole entry): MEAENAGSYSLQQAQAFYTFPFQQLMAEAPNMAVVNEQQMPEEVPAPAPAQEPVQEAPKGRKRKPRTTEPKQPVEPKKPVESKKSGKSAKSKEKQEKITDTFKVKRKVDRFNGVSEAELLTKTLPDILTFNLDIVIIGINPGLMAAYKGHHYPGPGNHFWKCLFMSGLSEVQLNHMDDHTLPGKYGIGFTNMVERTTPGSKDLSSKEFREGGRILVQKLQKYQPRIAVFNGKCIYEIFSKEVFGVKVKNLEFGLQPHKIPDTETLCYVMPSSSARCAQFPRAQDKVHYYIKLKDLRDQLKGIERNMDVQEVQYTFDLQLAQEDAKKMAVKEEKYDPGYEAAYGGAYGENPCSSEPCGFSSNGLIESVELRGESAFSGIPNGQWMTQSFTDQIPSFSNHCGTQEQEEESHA
Description: Inhibition of TDG by quantifying inhibition of TDG-mediated cleavage and dissociation of quenched duplex DNA oligonucleotides, measured as fluorescence at 594 nm. To generate a functional strand incision and increase turn-over this assay is coupled to APE1.

[8] = molecular target: Uracil-DNA glycosylase (Homo sapiens) (UniProt P13051); details: Hit No;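 further: UNG excision on a quenched double-stranded DNA oligo probe, with APE1 added for strand incision and turnover, read as fluorescence at 594 nm as strands separate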
Sequence of Uracil-DNA glycosylase (Homo sapiens) (P13051 whole entry): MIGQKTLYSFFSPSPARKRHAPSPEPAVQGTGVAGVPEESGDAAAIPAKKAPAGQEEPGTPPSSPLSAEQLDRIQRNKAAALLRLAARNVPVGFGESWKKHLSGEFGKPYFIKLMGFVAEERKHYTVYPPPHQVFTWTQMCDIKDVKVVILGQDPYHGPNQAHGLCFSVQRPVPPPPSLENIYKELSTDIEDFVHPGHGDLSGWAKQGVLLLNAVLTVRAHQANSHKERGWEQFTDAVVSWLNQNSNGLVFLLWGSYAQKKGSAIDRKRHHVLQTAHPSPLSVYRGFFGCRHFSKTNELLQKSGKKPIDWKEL
Description: Inhibition of UNG by quantifying inhibition of UNG-mediated cleavage and dissociation of quenched duplex DNA oligonucleotides, measured as fluorescence at 594 nm. To generate a functional strand incision and increase turn-over this assay is coupled to APE1.

[9] = Compound Concentration 10.0 uM, Hit No
[10] = Compound Concentration 1.0 uM, Hit No

Row | Compound | inhibition ([1]; Compound Concentration 10.0 uM) [%] | inhibition [2, 9] [%] | inhibition ([3]; Compound Concentration 10.0 uM) [%] | inhibition ([4]; Compound Concentration 10.0 uM) [%] | inhibition ([5]; Compound Concentration 10.0 uM) [%] | inhibition ([6]; Compound Concentration 10.0 uM) [%] | inhibition ([7]; Compound Concentration 10.0 uM) [%] | inhibition ([8]; Compound Concentration 10.0 uM) [%] | inhibition ([1]; Compound Concentration 1.0 uM) [%] | inhibition [2, 10] [%] | inhibition ([3]; Compound Concentration 1.0 uM) [%] | inhibition ([4]; Compound Concentration 1.0 uM) [%] | inhibition ([5]; Compound Concentration 1.0 uM) [%] | inhibition ([6]; Compound Concentration 1.0 uM) [%] | inhibition ([7]; Compound Concentration 1.0 uM) [%] | inhibition ([8]; Compound Concentration 1.0 uM) [%] | inhibition ([2]; Compound Concentration 10.0 uM, Hit Yes) [%]
1 | Cc1cnc(-c2cc(Cl)ccc2F)cc1-n1c(=O)n(CC(N)=O)c2cnccc21 | -1.49 | 1.02 | -8.34 | 27.6 | -5.82 | 13.4 | 43.1 | 3.5 |  |  |  |  |  |  |  |  | 
2 | CC[C@@H]1CN2C(=O)N(C)c3nc(-c4ccccc4)[nH]c3C2=N1 | 7.79 | -8.56 | -3.73 | -6.99 | 0.982 | -6.04 | -6.27 | -9.41 |  |  |  |  |  |  |  |  | 
3 | CNC(=O)COc1cc2cc(Nc3nc(N4C[C@H](C)C[C@H](C)C4)ncc3Cl)ccc2n(C)c1=O | -7.86 | 1.85 | 4.1 | 45.8 | -7.56 | 10.3 | 53.4 | 2.34 |  |  |  |  |  |  |  |  | 
4 | CCCc1c(OCCCOc2ccc(OCC(=O)O)cc2)ccc(C(C)=O)c1O | 3.31 | 64.5 | 10.5 | 63.2 | -2.56 | 4.9 | 63 | 2.04 |  |  |  |  |  |  |  |  | 
5 | Cc1cn([C@H](C)CC#N)c(=O)c2cc(Cn3nc(C(F)F)cc3Cl)nn12 | -5.89 | -5.53 | -2.27 | 55.5 | -8.77 | 9.99 | 31.2 | 1.83 |  |  |  |  |  |  |  |  | 
6 | Cc1ccc2nc(CNCCCOc3ccccc3)cc(O)c2c1 | 2 | 11.7 | -8.14 | 18.2 | 0.467 | 6.33 | 34.3 | -1.26 |  |  |  |  |  |  |  |  | 
7 | CCCCOCCOc1nc(-c2ccc(C(=O)O)c(F)c2)sc1C | -1.29 | 14.4 | 6.14 | 64.4 | 6.68 | 18.1 | 46.5 | 1.01 |  |  |  |  |  |  |  |  | 
8 | CC[C@@H]1[C@H](F)C(=O)N[C@@H]1COc1nccc2cc(C(N)=O)c(OC)cc12 |  |  |  |  |  |  |  |  | 2.88 | -7.95 | -7.57 | 1.45 | -3.17 | 2.52 | 35.2 | -6.54 | 
9 | CN1CCC[C@H]1c1cccnc1 | 8 | -8.49 | -0.35 | -6.38 | 4.6 | -4.08 | -9.56 | -2.67 |  |  |  |  |  |  |  |  | 
10 | CC(=O)Nc1ccc(-c2cc(-c3ccccc3)nc3cc(C(=O)NCCCn4ccnc4)nn23)cc1 | 3.31 | -1.79 | -6.36 | 52.7 | -3.92 | 10.4 | 38.6 | 5.92 |  |  |  |  |  |  |  |  | 
11 | Cn1c(C2(NC(=O)c3ccc(NCC4CCCCC4)nc3)CCC2)nc2ccc(/C=C/C(=O)O)cc21 | 3.97 | 15 | 5.38 | 65.1 | 2.89 | 15.9 | 57.9 | 7.23 |  |  |  |  |  |  |  |  | 
12 | C=C1/C(=C\C=C2/CCC[C@]3(C)[C@@H]([C@H](C)/C=C/[C@H](C)C(C)C)CC[C@@H]23)C[C@@H](O)C[C@@H]1O | 0.685 | -5.13 | -1.51 | 52.9 | -1.8 | 9.91 | 47.8 | 1.6 |  |  |  |  |  |  |  |  | 
13 | CNC(=O)c1cc(C(=O)NC2CC2)cn(Cc2ccccc2)c1=O | -1.29 | 10.8 | -1.25 | 59.4 | 8.49 | -2.99 | 29.8 | -2.05 |  |  |  |  |  |  |  |  | 
14 | CC(C)(O)c1cn(-c2ccc(-c3cccc(S(C)(=O)=O)c3)cc2)c(C(C)(C)c2ccccc2Cl)n1 | -2.6 | 5 | -6.36 | 15.3 | -5.44 | 17.1 | 57.4 | -9.54 |  |  |  |  |  |  |  |  | 
15 | NS(=O)(=O)c1cc(NC(=O)C2(c3ccccc3Cl)CC2)ccc1Oc1cccc(Cl)c1 | -7.86 | 21.8 | 3.34 | 26.3 | -2.56 | 17.9 | 35.3 | -3.29 |  |  |  |  |  |  |  |  | 
16 | COc1cc(O)c(C(CC(=O)N2C[C@H](C)C[C@H](C)C2)c2ccc3c(c2)OCO3)c(OC)c1 (stereo not given in full) | -3.92 | 10.8 | -7.38 | 55.4 | -4.23 | 8.36 | 58.3 | -0.808 |  |  |  |  |  |  |  |  | 
17 | CCn1c(CNC(=O)c2ncc(C)nc2N)[n+](CC)c2ccc(C(=O)N(C)CCN(C)C)cc21 | -6.55 | 14.2 | 1.3 | 47.5 | -4.53 | 1.28 | 100 | -0.563 |  |  |  |  |  |  |  |  | 
18 | Nc1nc(NCc2ccccc2)nc(-c2cccc(CO)c2)n1 | -5.89 | -2.67 | -1.51 | 54 | -6.05 | 0.878 | 32.3 | -0.892 |  |  |  |  |  |  |  |  | 
19 | COC(=O)/C=C/c1cccc(N(Cc2ccc(-c3ccc(N(C)C)cc3)cc2)C(=O)C2CCCCC2)c1 | 7.26 | 7.66 | 3.34 | 53.7 | -4.23 | -4.57 | 44.3 | -3.03 |  |  |  |  |  |  |  |  | 
20 | COc1cc(N[C@@H]2CCCC[C@]2(O)C(F)(F)F)ccc1F |  |  |  |  |  |  |  |  | -3.26 | 1.9 | 4.36 | 65.4 | 1.98 | 14.3 | 50.9 | 0.673 | 
21 | O=C(NOC[C@H](O)CO)c1ccc(F)c(F)c1Nc1ccc(I)cc1F |  |  |  |  |  |  |  |  | 5.67 | -3.87 | -6.76 | -6.44 | 6.08 | -2.11 | 39.9 | -1.39 | 
22 | CS(=O)(=O)c1cc(C2(NC(=O)c3cncc4c3cnn4-c3ccc(F)cc3)CC2)ccn1 |  |  |  |  |  |  |  |  | 0.0274 | -1.05 | 1.04 | 53.3 | -0.745 | 7.38 | 54.5 | 0.429 | 
23 | O=C(NCCCC1CCCCC1)c1ccc(CNC(=O)c2cnn(-c3ccccc3)c2C(F)(F)F)cc1 | -3.4 | 4.23 |  |  |  | 6.97 | 22.8 | 0.115 |  | 7.9 | -8.65 | 56.5 | -2.11 | 0.918 | 42.2 | -2.97 | 
24 | CN(C)CC#Cc1ccc(OCCCc2sc(N3CCc4cccc(C(=O)Nc5nc6ccccc6s5)c4C3)nc2C(=O)O)c(F)c1 | 0.0274 |  | -4.83 | 47.6 | -0.896 | 1.49 | 40.4 | 1.14 |  |  |  |  |  |  |  |  | 85.3
25 | O=S(=O)(NC1CCC(c2cc(F)ccc2F)(S(=O)(=O)c2ccc(Cl)cc2)CC1)C(F)(F)F (stereo not given) |  |  |  |  |  |  |  |  | -3.92 | 19.6 | -8.91 | 61.8 | -7.56 | 19.5 | 36.8 | 0.604 | 
26 | OC(c1ccc(-c2ccc(CN3CCN(Cc4ccncc4)CC3)cc2)c(F)c1)(C(F)(F)F)C(F)(F)F | -8.52 | -1.15 | -2.02 | 47.6 | -6.8 | -2.17 | 64.2 | -1.04 |  |  |  |  |  |  |  |  | 
27 | C[C@H](NC(=O)c1cn(C2(C#N)CC2)cn1)C(=O)Nc1nc(-c2cccc(-c3ccn(C)n3)c2)cs1 |  |  |  |  |  |  |  |  | -7.2 | -5.28 | -9.67 | 59.5 | -5.74 | 3.85 | 51.4 | 1.27 | 
